Laboratory results as given in ChEMBL document CHEMBL3044670, “Aromatic sulfonyl hydrazides and sulfonyl hydrazones: antimicrobial activity and physical properties” (2013).
≈ marks a conversion by molar mass, not a printed value.

How the values were obtained:
Assay type in all cases: functional
Escherichia coli [1] = test: Antibacterial activity against Escherichia coli ATCC 25922 at 140 ug/disk after 18 to 24 hr by disk diffusion method; details: read-out: DIZ
Klebsiella pneumoniae [2] = test: Antibacterial activity against Klebsiella pneumoniae ATCC 13883 at 140 ug/disk after 18 to 24 hr by disk diffusion method; details: read-out: DIZ
Pseudomonas fluorescens [3] = test: Antibacterial activity against Pseudomonas fluorescens ATCC 49838 at 140 ug/disk after 18 to 24 hr by disk diffusion method; details: read-out: DIZ
Klebsiella aerogenes [4] = test: Antibacterial activity against Enterobacter aerogenes ATCC 13048 at 140 ug/disk after 18 to 24 hr by disk diffusion method; details: read-out: DIZ
[5] = test system: Staphylococcus epidermidis; test: Antibacterial activity against Staphylococcus epidermidis ATCC 12228 at 140 ug/disk after 18 to 24 hr by disk diffusion method; details: read-out: DIZ
Bacillus subtilis [6] = test: Antibacterial activity against Bacillus subtilis ATCC 6633 at 140 ug/disk after 18 to 24 hr by disk diffusion method; details: read-out: DIZ
Enterococcus faecalis [7] = test: Antibacterial activity against Enterococcus faecalis ATCC 29212 at 140 ug/disk after 18 to 24 hr by disk diffusion method; details: read-out: DIZ
Bacillus cereus [8] = test: Antibacterial activity against Bacillus cereus ATCC 11778 at 140 ug/disk after 18 to 24 hr by disk diffusion method; details: read-out: DIZ
Staphylococcus aureus [9] = test: Antibacterial activity against Staphylococcus aureus ATCC 25923 at 140 ug/disc after 18 to 24 hr by disk diffusion method; details: read-out: DIZ
Candida albicans [10] = test: Antifungal activity against Candida albicans ATCC 90028 after 18 to 24 hr by broth microdilution method
Pseudomonas aeruginosa [11] = test: Antibacterial activity against Pseudomonas aeruginosa ATCC 27853 after 18 to 24 hr by broth microdilution method
Escherichia coli [12] = test: Antibacterial activity against Escherichia coli ATCC 25922 after 18 to 24 hr by broth microdilution method
Klebsiella pneumoniae [13] = test: Antibacterial activity against Klebsiella pneumoniae ATCC 13883 after 18 to 24 hr by broth microdilution method
Pseudomonas fluorescens [14] = test: Antibacterial activity against Pseudomonas fluorescens ATCC 49838 after 18 to 24 hr by broth microdilution method
Klebsiella aerogenes [15] = test: Antibacterial activity against Enterobacter aerogenes ATCC 13048 after 18 to 24 hr by broth microdilution method
[16] = test system: Staphylococcus epidermidis; test: Antibacterial activity against Staphylococcus epidermidis ATCC 12228 after 18 to 24 hr by broth microdilution method
Enterococcus faecalis [17] = test: Antibacterial activity against Enterococcus faecalis ATCC 29212 after 18 to 24 hr by broth microdilution method
Bacillus cereus [18] = test: Antibacterial activity against Bacillus cereus ATCC 11778 after 18 to 24 hr by broth microdilution method
Staphylococcus aureus [19] = test: Antibacterial activity against Staphylococcus aureus ATCC 25923 after 18 to 24 hr by broth microdilution method
Candida albicans [20] = test: Antifungal activity against Candida albicans ATCC 90028 at 140 ug/disk after 18 to 24 hr by disk diffusion method; details: read-out: DIZ
Pseudomonas aeruginosa [21] = test: Antibacterial activity against Pseudomonas aeruginosa ATCC 27853 at 140 ug/disk after 18 to 24 hr by disk diffusion method; details: read-out: DIZ
Bacillus subtilis [22] = test: Antibacterial activity against Bacillus subtilis ATCC 6633 after 18 to 24 hr by broth microdilution method
Bacillus subtilis [23] = test: Antibacterial activity against Bacillus subtilis ATCC 6633 at 30 ug/disk after 18 to 24 hr by disk diffusion method; details: read-out: DIZ
Bacillus cereus [24] = test: Antibacterial activity against Bacillus cereus ATCC 11778 at 30 ug/disk after 18 to 24 hr by disk diffusion method; details: read-out: DIZ
Enterococcus faecalis [25] = test: Antibacterial activity against Enterococcus faecalis ATCC 29212 at 30 ug/disk after 18 to 24 hr by disk diffusion method; details: read-out: DIZ
Staphylococcus aureus [26] = test: Antibacterial activity against Staphylococcus aureus ATCC 25923 at 30 ug/disk after 18 to 24 hr by disk diffusion method; details: read-out: DIZ
Candida albicans [27] = test: Antifungal activity against Candida albicans ATCC 90028 at 30 ug/disk after 18 to 24 hr by disk diffusion method; details: read-out: DIZ
Pseudomonas aeruginosa [28] = test: Antibacterial activity against Pseudomonas aeruginosa ATCC 27853 at 30 ug/disk after 18 to 24 hr by disk diffusion method; details: read-out: DIZ
Escherichia coli [29] = test: Antibacterial activity against Escherichia coli ATCC 25922 at 30 ug/disk after 18 to 24 hr by disk diffusion method; details: read-out: DIZ
Klebsiella pneumoniae [30] = test: Antibacterial activity against Klebsiella pneumoniae ATCC 13883 at 30 ug/disk after 18 to 24 hr by disk diffusion method; details: read-out: DIZ
Klebsiella aerogenes [31] = test: Antibacterial activity against Enterobacter aerogenes ATCC 13048 at 30 ug/disk after 18 to 24 hr by disk diffusion method; details: read-out: DIZ
Pseudomonas fluorescens [32] = test: Antibacterial activity against Pseudomonas fluorescens ATCC 49838 at 30 ug/disk after 18 to 24 hr by disk diffusion method; details: read-out: DIZ
[33] = test system: Staphylococcus epidermidis; test: Antibacterial activity against Staphylococcus epidermidis ATCC 12228 at 30 ug/disk after 18 to 24 hr by disk diffusion method; details: read-out: DIZ

Row | SMILES | MIC (Candida albicans [10]) [µg/mL] | MIC (Pseudomonas aeruginosa [11]) [µg/mL] | MIC (Escherichia coli [12]) [µg/mL] | MIC (Klebsiella pneumoniae [13]) [µg/mL] | MIC (Pseudomonas fluorescens [14]) [µg/mL] | MIC (Klebsiella aerogenes [15]) [µg/mL] | MIC [16] [µg/mL] | MIC (Enterococcus faecalis [17]) [µg/mL] | MIC (Bacillus cereus [18]) [µg/mL] | MIC (Staphylococcus aureus [19]) [µg/mL] | MIC (Bacillus subtilis [22]) [µg/mL] | zone of inhibition at 140 µg/disc (Escherichia coli [1]) [mm] | zone of inhibition at 140 µg/disc (Klebsiella pneumoniae [2]) [mm] | zone of inhibition at 140 µg/disc (Pseudomonas fluorescens [3]) [mm] | zone of inhibition at 140 µg/disc (Klebsiella aerogenes [4]) [mm] | zone of inhibition at 140 µg/disc [5] [mm] | zone of inhibition at 140 µg/disc (Bacillus subtilis [6]) [mm] | zone of inhibition at 140 µg/disc (Enterococcus faecalis [7]) [mm] | zone of inhibition at 140 µg/disc (Bacillus cereus [8]) [mm] | zone of inhibition at 140 µg/disc (Staphylococcus aureus [9]) [mm] | also measured
1 | CN(/N=C/c1c(O)ccc2ccccc12)S(=O)(=O)c1ccccc1 | 500 (≈ 1470 µM) | 250 (≈ 734 µM) | 500 (≈ 1470 µM) | 250 (≈ 734 µM) | 250 (≈ 734 µM) | 500 (≈ 1470 µM) | 500 (≈ 1470 µM) | 500 (≈ 1470 µM) | 250 (≈ 734 µM) | 500 (≈ 1470 µM) | 250 (≈ 734 µM) | 17 | 23 | 26 | 18 | 16 | 28 | 17 | 26 | 19 | zone of inhibition at 140 µg/disc (Candida albicans [20]): 16 mm; zone of inhibition at 140 µg/disc (Pseudomonas aeruginosa [21]): 25 mm
2 | COc1cc(Cc2cnc(N)nc2N)cc(OC)c1OC [TRIMETHOPRIM] | – | 1 (≈ 3.44 µM) | – | 1 (≈ 3.44 µM) | 1 (≈ 3.44 µM) | 1 (≈ 3.44 µM) | – | 0.5 (≈ 1.72 µM) | – | 1 (≈ 3.44 µM) | 1 (≈ 3.44 µM) | – | – | – | – | – | – | – | – | – | zone of inhibition at 30 µg/disc (Bacillus subtilis [23]): 20 mm; zone of inhibition at 30 µg/disc (Bacillus cereus [24]): 0 mm; zone of inhibition at 30 µg/disc (Enterococcus faecalis [25]): 27 mm; zone of inhibition at 30 µg/disc (Staphylococcus aureus [26]): 37 mm; zone of inhibition at 30 µg/disc (Candida albicans [27]): 0 mm; zone of inhibition at 30 µg/disc (Pseudomonas aeruginosa [28]): 31 mm; zone of inhibition at 30 µg/disc (Escherichia coli [29]): 0 mm; zone of inhibition at 30 µg/disc (Klebsiella pneumoniae [30]): 0 mm; zone of inhibition at 30 µg/disc (Klebsiella aerogenes [31]): 28 mm; zone of inhibition at 30 µg/disc (Pseudomonas fluorescens [32]): 0 mm; zone of inhibition at 30 µg/disc [33]: 29 mm

More lines, main results first:

Row | MIC (Candida albicans [10]) [µg/mL] | MIC (Pseudomonas aeruginosa [11]) [µg/mL] | MIC (Escherichia coli [12]) [µg/mL] | MIC (Klebsiella pneumoniae [13]) [µg/mL] | MIC (Pseudomonas fluorescens [14]) [µg/mL] | MIC (Klebsiella aerogenes [15]) [µg/mL] | MIC [16] [µg/mL] | MIC (Enterococcus faecalis [17]) [µg/mL] | MIC (Bacillus cereus [18]) [µg/mL] | MIC (Staphylococcus aureus [19]) [µg/mL] | MIC (Bacillus subtilis [22]) [µg/mL] | SMILES | zone of inhibition at 140 µg/disc (Escherichia coli [1]) [mm] | zone of inhibition at 140 µg/disc (Klebsiella pneumoniae [2]) [mm] | zone of inhibition at 140 µg/disc (Pseudomonas fluorescens [3]) [mm] | zone of inhibition at 140 µg/disc (Klebsiella aerogenes [4]) [mm] | zone of inhibition at 140 µg/disc [5] [mm] | zone of inhibition at 140 µg/disc (Bacillus subtilis [6]) [mm] | zone of inhibition at 140 µg/disc (Enterococcus faecalis [7]) [mm] | zone of inhibition at 140 µg/disc (Bacillus cereus [8]) [mm] | zone of inhibition at 140 µg/disc (Staphylococcus aureus [9]) [mm] | also measured
3 | 1000 (≈ 3570 µM) | 125 (≈ 446 µM) | 125 (≈ 446 µM) | 125 (≈ 446 µM) | 125 (≈ 446 µM) | 250 (≈ 892 µM) | 125 (≈ 446 µM) | 1000 (≈ 3570 µM) | 250 (≈ 892 µM) | 250 (≈ 892 µM) | 125 (≈ 446 µM) | CN(/N=C/c1cccs1)S(=O)(=O)c1ccccc1 | 17 | 21 | 25 | 17 | 15 | 24 | 0 | 25 | 12 | zone of inhibition at 140 µg/disc (Candida albicans [20]): 0 mm; zone of inhibition at 140 µg/disc (Pseudomonas aeruginosa [21]): 24 mm
4 | > 2000 | 62.5 (≈ 336 µM) | 125 (≈ 671 µM) | 125 (≈ 671 µM) | 62.5 (≈ 336 µM) | 125 (≈ 671 µM) | 125 (≈ 671 µM) | 250 (≈ 1340 µM) | 125 (≈ 671 µM) | 125 (≈ 671 µM) | 125 (≈ 671 µM) | CN(N)S(=O)(=O)c1ccccc1 | 18 | 17 | 22 | 16 | 14 | 16 | 15 | 15 | 19 | zone of inhibition at 140 µg/disc (Candida albicans [20]): 0 mm; zone of inhibition at 140 µg/disc (Pseudomonas aeruginosa [21]): 19 mm
5 | – | 0.125 (≈ 0.281 µM) | 0.075 (≈ 0.169 µM) | 0.15 (≈ 0.338 µM) | 0.125 (≈ 0.281 µM) | 0.15 (≈ 0.338 µM) | 0.125 (≈ 0.281 µM) | 0.625 (≈ 1.41 µM) | – | – | 0.075 (≈ 0.169 µM) | CN(C)[C@@H]1C(O)=C(C(N)=O)C(=O)[C@@]2(O)C(O)=C3C(=O)c4c(O)cccc4[C@@](C)(O)[C@H]3C[C@@H]12 [TETRACYCLINE] | – | – | – | – | – | – | – | – | – | zone of inhibition at 30 µg/disc (Bacillus subtilis [23]): 26 mm; zone of inhibition at 30 µg/disc (Bacillus cereus [24]): 19 mm; zone of inhibition at 30 µg/disc (Enterococcus faecalis [25]): 0 mm; zone of inhibition at 30 µg/disc (Staphylococcus aureus [26]): 0 mm; zone of inhibition at 30 µg/disc (Candida albicans [27]): 0 mm; zone of inhibition at 30 µg/disc (Pseudomonas aeruginosa [28]): 23 mm; zone of inhibition at 30 µg/disc (Escherichia coli [29]): 23 mm; zone of inhibition at 30 µg/disc (Klebsiella pneumoniae [30]): 12 mm; zone of inhibition at 30 µg/disc (Klebsiella aerogenes [31]): 0 mm; zone of inhibition at 30 µg/disc (Pseudomonas fluorescens [32]): 19 mm; zone of inhibition at 30 µg/disc [33]: 19 mm
